Test results: ChEMBL document CHEMBL1133098, “Subtype-selective N-methyl-D-aspartate receptor antagonists: benzimidazalone and hydantoin as phenol replacements” (J Med Chem, 2000)

Experiments:
Format in all cases: cell-based, Oocyte
[1] = target: Glutamate NMDA receptor; Grin1/Grin2b (Rattus norvegicus, UniProt P35439+Q00960); assay: In vitro inhibition of NMDA responses at NR1A/2B receptor expressed in Xenopus oocytes
[2] = target: Glutamate receptor ionotropic, NMDA 2C (Rattus norvegicus, UniProt P35439+Q00961); assay: In vitro inhibition of NMDA responses at NR1A/2C receptor expressed in Xenopus oocytes
Glutamate receptor ionotropic, NMDA 2C, sequence (Q00961 whole entry, one chain of several): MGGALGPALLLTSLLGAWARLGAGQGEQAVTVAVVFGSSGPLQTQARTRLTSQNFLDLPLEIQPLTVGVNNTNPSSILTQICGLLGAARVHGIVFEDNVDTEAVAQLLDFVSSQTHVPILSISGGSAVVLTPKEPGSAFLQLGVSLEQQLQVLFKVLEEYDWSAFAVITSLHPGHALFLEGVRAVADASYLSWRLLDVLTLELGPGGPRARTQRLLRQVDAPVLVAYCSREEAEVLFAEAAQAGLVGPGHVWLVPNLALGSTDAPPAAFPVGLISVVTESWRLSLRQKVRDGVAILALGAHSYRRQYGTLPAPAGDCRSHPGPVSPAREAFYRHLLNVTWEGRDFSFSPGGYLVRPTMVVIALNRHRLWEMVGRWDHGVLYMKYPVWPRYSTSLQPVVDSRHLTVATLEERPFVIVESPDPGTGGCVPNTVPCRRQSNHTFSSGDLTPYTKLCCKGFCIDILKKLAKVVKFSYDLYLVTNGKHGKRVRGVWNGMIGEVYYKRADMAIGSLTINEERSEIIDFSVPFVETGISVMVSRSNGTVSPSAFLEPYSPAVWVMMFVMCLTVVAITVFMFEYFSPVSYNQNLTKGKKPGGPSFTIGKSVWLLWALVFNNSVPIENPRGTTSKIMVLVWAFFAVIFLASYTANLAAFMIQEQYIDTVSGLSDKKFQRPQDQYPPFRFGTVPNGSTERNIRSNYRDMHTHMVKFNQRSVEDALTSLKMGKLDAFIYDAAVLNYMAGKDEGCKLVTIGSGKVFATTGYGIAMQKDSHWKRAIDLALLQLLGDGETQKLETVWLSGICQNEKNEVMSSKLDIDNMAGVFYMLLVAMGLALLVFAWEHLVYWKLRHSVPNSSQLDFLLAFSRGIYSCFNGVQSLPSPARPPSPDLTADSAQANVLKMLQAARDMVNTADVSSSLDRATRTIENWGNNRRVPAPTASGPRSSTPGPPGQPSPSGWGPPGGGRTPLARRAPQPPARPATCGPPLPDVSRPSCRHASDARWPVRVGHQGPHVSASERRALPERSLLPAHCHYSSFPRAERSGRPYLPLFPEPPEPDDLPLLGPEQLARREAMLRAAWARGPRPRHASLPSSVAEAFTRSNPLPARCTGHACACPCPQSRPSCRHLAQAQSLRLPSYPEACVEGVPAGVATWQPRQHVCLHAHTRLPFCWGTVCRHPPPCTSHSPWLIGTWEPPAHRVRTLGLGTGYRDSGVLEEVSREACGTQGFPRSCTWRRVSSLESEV

[3] = target: Glutamate NMDA receptor; Grin1/Grin2a (Rattus norvegicus, UniProt P35439+Q00959); assay: In vitro inhibition of NMDA responses at NR1A/2A receptor expressed in Xenopus oocytes
Glutamate NMDA receptor; Grin1/Grin2a, sequence (Q00959 whole entry, looked up, other chains not shown): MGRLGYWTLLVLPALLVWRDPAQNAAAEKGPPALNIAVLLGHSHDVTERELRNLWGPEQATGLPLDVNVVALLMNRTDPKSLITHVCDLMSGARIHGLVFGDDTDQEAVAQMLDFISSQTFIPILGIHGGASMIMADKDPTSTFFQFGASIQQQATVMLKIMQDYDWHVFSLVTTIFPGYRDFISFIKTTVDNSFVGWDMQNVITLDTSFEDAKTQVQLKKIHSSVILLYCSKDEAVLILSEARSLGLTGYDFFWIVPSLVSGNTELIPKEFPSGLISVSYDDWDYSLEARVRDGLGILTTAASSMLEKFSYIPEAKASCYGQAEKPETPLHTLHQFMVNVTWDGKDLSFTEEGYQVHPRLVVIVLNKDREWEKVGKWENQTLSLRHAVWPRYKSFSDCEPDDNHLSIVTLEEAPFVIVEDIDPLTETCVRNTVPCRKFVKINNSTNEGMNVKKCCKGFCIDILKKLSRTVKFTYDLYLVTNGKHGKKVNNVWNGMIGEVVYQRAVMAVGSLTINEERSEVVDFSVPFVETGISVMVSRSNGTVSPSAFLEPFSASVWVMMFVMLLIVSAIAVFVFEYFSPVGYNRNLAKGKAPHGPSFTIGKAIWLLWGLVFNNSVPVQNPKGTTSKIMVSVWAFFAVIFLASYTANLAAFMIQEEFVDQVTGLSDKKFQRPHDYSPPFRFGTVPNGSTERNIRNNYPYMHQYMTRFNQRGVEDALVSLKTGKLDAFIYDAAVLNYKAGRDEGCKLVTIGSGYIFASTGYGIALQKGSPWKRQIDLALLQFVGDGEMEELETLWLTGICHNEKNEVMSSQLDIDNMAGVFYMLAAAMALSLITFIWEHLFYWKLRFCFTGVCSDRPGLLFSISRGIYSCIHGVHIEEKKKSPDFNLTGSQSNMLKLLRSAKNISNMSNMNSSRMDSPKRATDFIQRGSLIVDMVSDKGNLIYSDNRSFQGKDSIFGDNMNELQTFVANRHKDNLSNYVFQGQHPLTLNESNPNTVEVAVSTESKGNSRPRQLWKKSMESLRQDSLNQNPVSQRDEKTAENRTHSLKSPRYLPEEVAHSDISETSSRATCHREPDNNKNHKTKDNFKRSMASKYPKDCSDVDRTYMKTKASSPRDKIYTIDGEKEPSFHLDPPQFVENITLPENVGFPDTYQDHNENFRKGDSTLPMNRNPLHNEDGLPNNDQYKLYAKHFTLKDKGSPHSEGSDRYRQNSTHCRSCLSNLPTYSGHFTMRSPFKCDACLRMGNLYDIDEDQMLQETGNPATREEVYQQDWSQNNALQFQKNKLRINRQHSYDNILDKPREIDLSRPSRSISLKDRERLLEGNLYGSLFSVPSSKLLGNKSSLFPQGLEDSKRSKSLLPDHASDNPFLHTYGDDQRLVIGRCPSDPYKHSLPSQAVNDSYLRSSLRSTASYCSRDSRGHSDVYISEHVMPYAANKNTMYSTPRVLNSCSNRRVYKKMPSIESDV

Glutamate NMDA receptor; Grin1/Grin2b, sequence (Q00960 whole entry, looked up, other chains not shown): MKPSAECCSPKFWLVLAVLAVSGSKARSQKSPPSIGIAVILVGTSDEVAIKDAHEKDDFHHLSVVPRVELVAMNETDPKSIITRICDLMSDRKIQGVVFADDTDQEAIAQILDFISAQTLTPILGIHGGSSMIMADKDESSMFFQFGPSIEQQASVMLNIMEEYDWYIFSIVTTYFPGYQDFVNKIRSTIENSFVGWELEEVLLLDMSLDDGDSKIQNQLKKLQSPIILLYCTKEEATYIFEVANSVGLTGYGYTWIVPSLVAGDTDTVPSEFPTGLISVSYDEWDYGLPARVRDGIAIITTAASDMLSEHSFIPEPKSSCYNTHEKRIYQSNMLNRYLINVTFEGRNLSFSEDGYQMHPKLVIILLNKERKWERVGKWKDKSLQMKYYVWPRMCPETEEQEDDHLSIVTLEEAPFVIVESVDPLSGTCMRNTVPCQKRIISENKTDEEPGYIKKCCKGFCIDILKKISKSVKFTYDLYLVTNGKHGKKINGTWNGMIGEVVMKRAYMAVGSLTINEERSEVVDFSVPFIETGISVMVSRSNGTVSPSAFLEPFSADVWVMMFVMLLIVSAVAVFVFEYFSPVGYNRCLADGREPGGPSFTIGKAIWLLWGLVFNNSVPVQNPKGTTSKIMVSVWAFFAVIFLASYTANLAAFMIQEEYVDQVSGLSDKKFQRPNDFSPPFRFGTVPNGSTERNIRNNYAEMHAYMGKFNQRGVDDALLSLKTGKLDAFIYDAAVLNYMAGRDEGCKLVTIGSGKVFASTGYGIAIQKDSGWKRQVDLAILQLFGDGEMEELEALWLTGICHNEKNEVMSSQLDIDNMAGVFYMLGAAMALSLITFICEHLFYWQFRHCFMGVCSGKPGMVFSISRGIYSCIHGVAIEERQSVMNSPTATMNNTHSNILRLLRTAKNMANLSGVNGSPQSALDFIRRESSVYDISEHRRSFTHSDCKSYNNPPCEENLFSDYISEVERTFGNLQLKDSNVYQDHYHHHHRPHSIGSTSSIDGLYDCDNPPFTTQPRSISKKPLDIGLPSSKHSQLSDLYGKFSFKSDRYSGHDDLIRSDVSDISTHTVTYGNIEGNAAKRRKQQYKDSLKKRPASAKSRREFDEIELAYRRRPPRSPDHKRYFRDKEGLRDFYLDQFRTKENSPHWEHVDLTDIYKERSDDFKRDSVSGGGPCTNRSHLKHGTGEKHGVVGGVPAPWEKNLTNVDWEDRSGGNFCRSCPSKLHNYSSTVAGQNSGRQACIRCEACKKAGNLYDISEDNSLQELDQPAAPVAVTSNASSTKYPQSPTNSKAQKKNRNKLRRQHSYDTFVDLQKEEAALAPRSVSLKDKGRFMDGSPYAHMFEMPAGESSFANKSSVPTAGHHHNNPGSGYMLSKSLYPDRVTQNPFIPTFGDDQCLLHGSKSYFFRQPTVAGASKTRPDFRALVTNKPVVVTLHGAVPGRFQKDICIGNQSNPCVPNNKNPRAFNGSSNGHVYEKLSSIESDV

SMILES | IC50 [1] | IC50 [2] | IC50 [3]
O=c1[nH]c2ccccc2n1CCCN1CCC(Cc2ccc(F)cc2)CC1 | 0.11 µM | > 100 µM | > 100 µM
Oc1ccc(OCCN2CCC(Cc3ccccc3)CC2)cc1 | – | > 100 µM | > 100 µM
O=c1[nH]c2ccccc2n1CCCN1CCC(Cc2ccccc2)CC1 | 0.095 µM | > 100 µM | > 100 µM
Oc1nc2ccccc2n1CCCCN1CCC(Cc2ccccc2)CC1 | 3.4 µM | > 100 µM | > 100 µM
O=c1[nH]c2ccccc2n1CCCCCN1CCC(Cc2ccccc2)CC1 | 11 µM | > 100 µM | > 100 µM

The remaining lines, values ahead:

IC50 [1] | IC50 [2] | IC50 [3] | SMILES
49 µM | > 100 µM | 88 µM | O=C1CNC(=O)N1CCCCCN1CCC(Cc2ccccc2)CC1
27 µM | > 100 µM | > 100 µM | O=C1CNC(=O)N1CCCN1CCC(Cc2ccccc2)CC1
10 µM | > 100 µM | > 100 µM | O=C1CNC(=O)N1CCCCN1CCC(Cc2ccccc2)CC1
